Assay results published in ChEMBL document CHEMBL1145006 (J Med Chem, 2003).
Starred links: 1 amine or outer side, 2 acyl side, 3 side chain; linkers in the order of their positions; H or OH if unused. Positions of bridges follow the written chain, without caps; N, C: chain ends. Non-standard residues stand in square brackets, D forms with d. Residues, ends and D or L forms follow the SMILES beside them. Groups on a side chain read outwards from the residue. *: point of attachment. Ethylenediamine = C(CN[*:2])N[*:1]; Hyp = O=C(O)[C@@H]1C[C@@H](O)CN1; CO = O=C([*:1])[*:2]; Bn = c1ccc(C*)cc1

Assays:
Assay type in all cases: cell-based
[1] = target: Somatostatin receptor type 1 (Homo sapiens, UniProt P30872); assay: Binding affinity towards human Somatostatin receptor type 1 (sst1) using Tyr11-[125I]-SRIF as radioligand was determined in CHO cells
[2] = target: Somatostatin receptor type 3 (Homo sapiens, UniProt P32745); assay: Binding affinity towards human Somatostatin receptor type 3 (sst3) using Tyr11-[125I]-SRIF as radioligand was determined in CHO cells
[3] = target: Somatostatin receptor type 4 (Homo sapiens, UniProt P31391); assay: Binding affinity towards human Somatostatin receptor type 4 (sst4) using Tyr11-[125I]-SRIF as radioligand was determined in CHO cells; conditions: for Log Ki: cho
[4] = target: Somatostatin receptor type 2 (Homo sapiens, UniProt P30874); assay: Binding affinity towards human Somatostatin receptor type 2 (sst2) using Tyr11-[125I]-SRIF as radioligand was determined in CHO cells
[5] = target: Somatostatin receptor type 5 (Homo sapiens, UniProt P35346); assay: Binding affinity towards human Somatostatin receptor type 5 (sst5) using Tyr11-[125I]-SRIF as radioligand was determined in COS cell
Sequence of Somatostatin receptor type 5 (P35346 whole entry): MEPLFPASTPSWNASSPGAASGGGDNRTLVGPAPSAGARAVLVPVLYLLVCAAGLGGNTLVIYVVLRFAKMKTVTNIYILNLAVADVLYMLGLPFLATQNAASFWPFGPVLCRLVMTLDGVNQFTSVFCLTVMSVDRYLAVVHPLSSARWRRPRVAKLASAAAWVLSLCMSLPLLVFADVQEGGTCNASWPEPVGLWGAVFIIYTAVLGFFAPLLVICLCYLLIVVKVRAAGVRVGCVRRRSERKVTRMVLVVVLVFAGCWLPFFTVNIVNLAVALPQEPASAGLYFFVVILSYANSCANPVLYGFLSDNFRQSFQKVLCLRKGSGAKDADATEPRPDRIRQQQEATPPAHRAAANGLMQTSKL

Sequence of Somatostatin receptor type 4 (P31391 whole entry): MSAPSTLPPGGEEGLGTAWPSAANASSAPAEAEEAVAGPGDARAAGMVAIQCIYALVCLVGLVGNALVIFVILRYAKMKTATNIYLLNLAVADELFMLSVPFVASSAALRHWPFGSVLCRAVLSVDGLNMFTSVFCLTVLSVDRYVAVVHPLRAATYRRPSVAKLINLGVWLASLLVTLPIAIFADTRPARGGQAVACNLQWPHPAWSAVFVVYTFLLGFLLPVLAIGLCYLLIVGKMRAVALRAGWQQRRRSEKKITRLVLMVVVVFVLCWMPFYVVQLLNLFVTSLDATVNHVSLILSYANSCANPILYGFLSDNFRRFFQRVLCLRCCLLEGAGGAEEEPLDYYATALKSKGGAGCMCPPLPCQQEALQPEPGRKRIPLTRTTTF
Sequence of Somatostatin receptor type 3 (P32745 whole entry): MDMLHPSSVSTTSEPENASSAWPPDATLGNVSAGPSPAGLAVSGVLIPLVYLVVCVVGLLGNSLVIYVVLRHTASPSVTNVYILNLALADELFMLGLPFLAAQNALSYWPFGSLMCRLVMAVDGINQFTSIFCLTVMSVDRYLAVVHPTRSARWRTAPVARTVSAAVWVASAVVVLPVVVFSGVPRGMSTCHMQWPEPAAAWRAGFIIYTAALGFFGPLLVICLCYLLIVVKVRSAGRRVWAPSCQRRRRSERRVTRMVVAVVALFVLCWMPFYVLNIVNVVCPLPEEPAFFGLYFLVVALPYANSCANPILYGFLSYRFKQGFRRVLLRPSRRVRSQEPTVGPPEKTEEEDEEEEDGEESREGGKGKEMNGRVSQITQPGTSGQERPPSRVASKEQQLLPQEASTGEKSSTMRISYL
Sequence of Somatostatin receptor type 1 (P30872 whole entry): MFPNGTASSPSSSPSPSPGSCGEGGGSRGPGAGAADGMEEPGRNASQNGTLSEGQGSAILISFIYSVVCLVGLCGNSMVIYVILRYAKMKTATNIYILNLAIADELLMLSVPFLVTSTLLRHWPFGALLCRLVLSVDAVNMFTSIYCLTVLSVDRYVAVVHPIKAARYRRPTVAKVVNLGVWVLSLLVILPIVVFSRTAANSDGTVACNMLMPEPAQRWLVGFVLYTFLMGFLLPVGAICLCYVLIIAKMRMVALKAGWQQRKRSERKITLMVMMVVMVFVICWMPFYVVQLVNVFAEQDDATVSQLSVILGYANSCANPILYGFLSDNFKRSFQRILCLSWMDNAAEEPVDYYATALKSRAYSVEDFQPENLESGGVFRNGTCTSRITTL
Sequence of Somatostatin receptor type 2 (P30874 whole entry): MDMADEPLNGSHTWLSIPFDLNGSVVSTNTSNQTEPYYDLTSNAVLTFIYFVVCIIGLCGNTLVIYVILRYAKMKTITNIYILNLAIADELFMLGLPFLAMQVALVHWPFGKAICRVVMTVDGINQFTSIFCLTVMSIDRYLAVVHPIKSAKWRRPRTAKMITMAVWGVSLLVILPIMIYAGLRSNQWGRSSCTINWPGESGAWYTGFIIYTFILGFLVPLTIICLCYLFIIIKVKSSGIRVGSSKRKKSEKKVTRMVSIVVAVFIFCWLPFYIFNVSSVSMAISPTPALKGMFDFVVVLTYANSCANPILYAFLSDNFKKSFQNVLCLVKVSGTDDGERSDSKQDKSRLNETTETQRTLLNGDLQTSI

Row | Ki [1] [nM] | Ki [2] [nM] | Log Ki [3] | Ki [4] [nM] | Ki [5] [nM] | Ki [3] [nM] | SMILES
1 | 0.631 | 7.94 | > -9 | 6.31 | 6.31 | – | C[C@H](N)C(=O)NCC(=O)N[C@H]1CSSC[C@@H](C(N)=O)NC(=O)[C@H](CO)NC(=O)[C@H]([C@@H](C)O)NC(=O)[C@H](C)NC(=O)[C@H]([C@@H](C)O)NC(=O)[C@H](CCCCN)NC(=O)[C@H](Cc2c[nH]c3ccccc23)NC(=O)[C@H](Cc2ccccc2)NC(=O)[C@H](Cc2ccccc2)NC(=O)[C@H](CC(N)=O)NC(=O)[C@H](CCCCN)NC1=O (H-AGCKNFFWKTATSC-NH2; disulfide 3-14)
2 | 0.251 | 0.631 | > -9.7 | 0.126 | 0.158 | – | C[C@H](N)C(=O)NCC(=O)N[C@H]1CSSC[C@@H](C(N)=O)NC(=O)[C@H](CO)NC(=O)[C@H]([C@@H](C)O)NC(=O)[C@H](Cc2ccccc2)NC(=O)[C@H]([C@@H](C)O)NC(=O)[C@H](CCCCN)NC(=O)[C@H](Cc2c[nH]c3ccccc23)NC(=O)[C@H](Cc2ccccc2)NC(=O)[C@H](Cc2ccccc2)NC(=O)[C@H](C)NC(=O)[C@H](CCCCN)NC1=O (H-AGCKAFFWKTFTSC-NH2; disulfide 3-14)
3 | 1000 | 1000 | – | 1000 | 100 | > 1000 | C[C@H](N)C(=O)NCC(=O)N[C@H]1CSSC[C@@H](C(N)=O)NC(=O)[C@H](CO)NC(=O)[C@H]([C@@H](C)O)NC(=O)[C@H](Cc2ccccc2)NC(=O)[C@H]([C@@H](C)O)NC(=O)[C@H](C)NC(=O)[C@H](Cc2c[nH]c3ccccc23)NC(=O)[C@H](Cc2ccccc2)NC(=O)[C@H](Cc2ccccc2)NC(=O)[C@H](CC(N)=O)NC(=O)[C@H](CCCCN)NC1=O (H-AGCKNFFWATFTSC-NH2; disulfide 3-14)
4 | 0.158 | 0.631 | > -10 | 0.0794 | 0.794 | – | C[C@H](N)C(=O)NCC(=O)N[C@H]1CSSC[C@@H](C(N)=O)NC(=O)[C@H](C)NC(=O)[C@H]([C@@H](C)O)NC(=O)[C@H](Cc2ccccc2)NC(=O)[C@H]([C@@H](C)O)NC(=O)[C@H](CCCCN)NC(=O)[C@H](Cc2c[nH]c3ccccc23)NC(=O)[C@H](Cc2ccccc2)NC(=O)[C@H](Cc2ccccc2)NC(=O)[C@H](CC(N)=O)NC(=O)[C@H](CCCCN)NC1=O (H-AGCKNFFWKTFTAC-NH2; disulfide 3-14)
5 | 126 | 200 | > -7.1 | 20 | 100 | – | C[C@H](N)C(=O)NCC(=O)N[C@H]1CSSC[C@@H](C(N)=O)NC(=O)[C@H](CO)NC(=O)[C@H]([C@@H](C)O)NC(=O)[C@H](Cc2ccccc2)NC(=O)[C@H]([C@@H](C)O)NC(=O)[C@H](CCCCN)NC(=O)[C@H](Cc2c[nH]c3ccccc23)NC(=O)[C@H](Cc2ccccc2)NC(=O)[C@H](C)NC(=O)[C@H](CC(N)=O)NC(=O)[C@H](CCCCN)NC1=O (H-AGCKNAFWKTFTSC-NH2; disulfide 3-14)
6 | 0.501 | 0.631 | > -9.2 | 1.26 | 0.398 | – | C[C@H](N)C(=O)NCC(=O)N[C@H]1CSSC[C@@H](C(N)=O)NC(=O)[C@H](CO)NC(=O)[C@H](C)NC(=O)[C@H](Cc2ccccc2)NC(=O)[C@H]([C@@H](C)O)NC(=O)[C@H](CCCCN)NC(=O)[C@H](Cc2c[nH]c3ccccc23)NC(=O)[C@H](Cc2ccccc2)NC(=O)[C@H](Cc2ccccc2)NC(=O)[C@H](CC(N)=O)NC(=O)[C@H](CCCCN)NC1=O (H-AGCKNFFWKTFASC-NH2; disulfide 3-14)
7 | 20 | 25.1 | > -8.7 | 20 | 79.4 | – | C[C@H](N)C(=O)NCC(=O)N[C@H]1CSSC[C@@H](C(N)=O)NC(=O)[C@H](CO)NC(=O)[C@H]([C@@H](C)O)NC(=O)[C@H](Cc2ccccc2)NC(=O)[C@H]([C@@H](C)O)NC(=O)[C@H](CCCCN)NC(=O)[C@H](Cc2c[nH]c3ccccc23)NC(=O)[C@H](C)NC(=O)[C@H](Cc2ccccc2)NC(=O)[C@H](CC(N)=O)NC(=O)[C@H](CCCCN)NC1=O (H-AGCKNFAWKTFTSC-NH2; disulfide 3-14)
8 | 0.794 | 2.51 | > -9.5 | 0.501 | 1 | – | C[C@H](N)C(=O)NCC(=O)N[C@H]1CSSC[C@@H](C(N)=O)NC(=O)[C@H](CO)NC(=O)[C@H]([C@@H](C)O)NC(=O)[C@H](Cc2ccccc2)NC(=O)[C@H]([C@@H](C)O)NC(=O)[C@H](CCCCN)NC(=O)[C@H](Cc2c[nH]c3ccccc23)NC(=O)[C@H](Cc2ccccc2)NC(=O)[C@H](Cc2ccccc2)NC(=O)[C@H](CC(N)=O)NC(=O)[C@H](C)NC1=O (H-AGCANFFWKTFTSC-NH2; disulfide 3-14)

Further lines, the compound ahead of its results:

Row | SMILES | Ki [1] [nM] | Ki [2] [nM] | Log Ki [3] | Ki [4] [nM] | Ki [5] [nM] | Ki [3] [nM]
9 | NCCCC[C@@H]1NC(=O)[C@@H](Cc2c[nH]c3ccccc23)NC(=O)[C@H](Cc2ccccc2)NC(=O)[C@@H]2C[C@@H](OC(=O)NCCN)CN2C(=O)[C@H](Cc2ccccc2)NC(=O)[C@H](Cc2ccc(OCc3ccccc3)cc2)NC1=O (cyclo(F[Hyp]([CO-Ethylenediamine])F[dW]KY(Bn))) | 3.98 | 0.794 | – | 2 | 0.398 | 501
10 | C[C@H](N)C(=O)NCC(=O)N[C@H]1CSSC[C@@H](C(N)=O)NC(=O)[C@H](CO)NC(=O)[C@H]([C@@H](C)O)NC(=O)[C@H](Cc2ccccc2)NC(=O)[C@H]([C@@H](C)O)NC(=O)[C@H](CCCCN)NC(=O)[C@H](C)NC(=O)[C@H](Cc2ccccc2)NC(=O)[C@H](Cc2ccccc2)NC(=O)[C@H](CC(N)=O)NC(=O)[C@H](CCCCN)NC1=O (H-AGCKNFFAKTFTSC-NH2; disulfide 3-14) | 1000 | 1000 | – | 1000 | 79.4 | > 1000
11 | NCCCCCNC(=O)O[C@@H]1C[C@H]2C(=O)N[C@@H](Cc3ccccc3)C(=O)N[C@H](Cc3c[nH]c4ccccc34)C(=O)N[C@@H](CCCCN)C(=O)N[C@@H](Cc3ccc(OCc4ccccc4)cc3)C(=O)N[C@@H](Cc3ccccc3)C(=O)N2C1 | 10 | 2 | – | 3.16 | 0.631 | 631
12 | CC(C)[C@@H]1NC(=O)[C@H](CCCCN)NC(=O)[C@@H](Cc2c[nH]c3ccccc23)NC(=O)[C@H](Cc2ccc(O)cc2)NC(=O)[C@@H](NC(=O)[C@H](N)Cc2ccccc2)CSSC[C@@H](C(=O)N[C@@H](Cc2c[nH]c3ccccc23)C(N)=O)NC1=O [VAPREOTIDE] (H-[dF]CY[dW]KVCW-NH2; disulfide 2-7) | 158 | 20 | – | 0.0794 | – | 158
13 | NCCCC[C@@H]1NC(=O)[C@@H](Cc2c[nH]c3ccccc23)NC(=O)[C@H](Cc2ccccc2)NC(=O)[C@@H]2C[C@@H](O)CN2C(=O)[C@H](Cc2ccccc2)NC(=O)[C@H](Cc2ccc(OCc3ccccc3)cc2)NC1=O (cyclo(F[Hyp]F[dW]KY(Bn))) | 63.1 | 1.58 | – | 0.794 | 0.316 | 316
14 | C[C@H](N)C(=O)N[C@@H](C)C(=O)N[C@H]1CSSC[C@@H](C(N)=O)NC(=O)[C@H](CO)NC(=O)[C@H]([C@@H](C)O)NC(=O)[C@H](Cc2ccccc2)NC(=O)[C@H]([C@@H](C)O)NC(=O)[C@H](CCCCN)NC(=O)[C@H](Cc2c[nH]c3ccccc23)NC(=O)[C@H](Cc2ccccc2)NC(=O)[C@H](Cc2ccccc2)NC(=O)[C@H](CC(N)=O)NC(=O)[C@H](CCCCN)NC1=O (H-AACKNFFWKTFTSC-NH2; disulfide 3-14) | 0.2 | 0.794 | > -9.7 | 0.158 | 1.26 | –
15 | NCCCC[C@@H]1NC(=O)[C@@H](Cc2c[nH]c3ccccc23)NC(=O)[C@H](CCCN=C(N)N)NC(=O)[C@@H]2C[C@@H](OC(=O)NCCN)CN2C(=O)[C@H](Cc2ccccc2)NC(=O)[C@H](Cc2ccc(OCc3ccccc3)cc2)NC1=O | 6.31 | 20 | – | 10 | 0.398 | 316
16 | NCCCC[C@@H]1NC(=O)[C@@H](Cc2c[nH]c3ccccc23)NC(=O)[C@H](Cc2ccc(O)cc2)NC(=O)[C@@H]2C[C@@H](OC(=O)NCCN)CN2C(=O)[C@H](Cc2ccccc2)NC(=O)[C@H](Cc2ccc(OCc3ccccc3)cc2)NC1=O | 1.58 | 0.631 | > -7 | 0.794 | 0.251 | –
17 | CC(C)[C@@H]1NC(=O)[C@H](CCCCN)NC(=O)[C@@H](Cc2c[nH]c3ccccc23)NC(=O)[C@H](Cc2ccc(O)cc2)NC(=O)[C@H](C)N(C)C(=O)[C@H](Cc2ccccc2)NC1=O [SEGLITIDE] | > 1000 | 31.6 | – | – | 12.6 | –
18 | CN(C)CCNC(=O)O[C@@H]1C[C@H]2C(=O)N[C@@H](Cc3ccccc3)C(=O)N[C@H](Cc3c[nH]c4ccccc34)C(=O)N[C@@H](CCCCN)C(=O)N[C@@H](Cc3ccc(OCc4ccccc4)cc3)C(=O)N[C@@H](Cc3ccccc3)C(=O)N2C1 | 1.58 | 0.316 | > -7 | 0.501 | 0.1 | –
19 | CC(C)[C@@H]1NC(=O)[C@H](CCCCN)NC(=O)[C@@H](Cc2c[nH]c3ccccc23)NC(=O)[C@H](Cc2ccc(O)cc2)NC(=O)[C@@H](NC(=O)[C@H](N)Cc2ccc3ccccc3c2)CSSC[C@@H](C(=O)N[C@H](C(N)=O)[C@@H](C)O)NC1=O [LANREOTIDE] | 501 | – | – | – | – | –
20 | C[C@@H](O)[C@@H]1NC(=O)[C@H](CCCCN)NC(=O)[C@@H](Cc2c[nH]c3ccccc23)NC(=O)[C@H](Cc2ccccc2)NC(=O)[C@@H]2CCCN2C(=O)[C@H](Cc2ccccc2)NC1=O | – | – | > -7 | – | – | –
